Results reported in patent US20240299559A1, “COMPOUNDS THAT MEDIATE PROTEIN DEGRADATION AND METHODS OF USE THEREOF” (Monte Rosa Therapeutics, Inc., priority 2021, published 2024).

Columns and labels:
[1] = target: T1, CDK2 (Homo sapiens, UniProt P24941); experiment: CDK2 HiBiT assay (degradation, Dmax); assay type: cell-based; settings: HEK293 clonal lines with CRISPR KI HiBiT tag on CDK2, stably expressing LgBiT; 24 hours incubation
T1 construct: HEK293 clonal lines with CRISPR KI HiBiT tag on CDK2 proteins; host or cells: HEK293 clonal line with CRISPR knock-in HiBiT on CDK2, stably expressing LgBiT
Protocol: HEK293 clonal lines with CRISPR KI HiBiT tag on CDK2 proteins and stably expressing LgBiT protein were obtained from Promega (Madison, WI). Cells were plated at 5000 cells per well using Multiflo (BioTek) in 384-well white solid bottom plates (Corning, 3570BC) in 25 ul volume in DMEM media (DMEM, high glucose, HEPES, no phenol red (ThermoFisher Scientific, 21063029)) containing 10% FBS (Corning, 35-075-CV), 1% Penicillin/Streptomycin (ThermoFisher Scientific, 15140-122). Cells were incubated for 16 hours at 37° C., 5% CO2. 75 nL of a compound at 30 μM were dosed into the plate using an Echo® 650 liquid handler (Labcyte). Cells were incubated at 37° C., 5% CO2 for 24 hours. 5 ul of HiBiT Lysis Reagent (Promega, N3030) is added using Combi Multidrop (ThermoFisher Scientific), plates are incubated for 15′ at 37° C., 5% CO2 and then signal was read on a Pherastar FSX using “LUM plus” optic module.
Analysis was performed in Scinamic (Scinamic, Cambridge, MA). Luminescence response (R) was calculated by the formula: response=100*(S−N)/(P−N) where S is the signal of the well, N and P the mean negative and positive control values respectively of the same plate. The luminescence response was then fitted in Scinamic using a 3-parameter agonist logistic fit (hillslope=1, EC50>0, top/bottom unconstrained).

[2] = target: CRBN-DDB1 (Homo sapiens, UniProt Q96SW2); experiment: Compound binding to CRBN by HTRF assay; settings: CRBN-DDB1 2.5 nM, Cy5-Thalidomide 100 nM probe; Ki from geometric mean of IC50 by Cheng-Prustoff transformation
Protocol: Compound activity was monitored in a Homogenous Time-Resolved Fluorescence (HTRF) assay using 1-[5-({2-[2-(2-{[2-(2,6-dioxopiperidin-3-yl)-1,3-dioxo-2,3-dihydro-1H-isoindol-4-yl]oxy}acetamido)ethoxy]ethyl}carbamoyl)pentyl]-3,3-dimethyl-2-[(1E,3E)-5-[(2E)-1,3,3-trimethyl-5-sulfo-2,3-dihydro-1H-indol-2-ylidene]penta-1,3-dien-1-yl]-3H-indol-1-ium-5-sulfonate as a fluorescent probe. Biochemical assays were conducted in Greiner white 384 well HiBase plates (Cat. No 784075-25) in 10 μL total volume. A one pot detection solution of CRBN-DDB1 (2.5 nM), Anti-His Terbium Cryptate Gold (1×, PerkinElmer Cat. #: 61HI2TLB), and Cy5-Thalidomide (100 nM, Tenova Cat.: T52461) was prepared in 20 mM HEPES, 20 mM NaCl, 0.2 mM TCEP, 0.2 mM EDTA, and 0.005% Tween20 was dispensed to each assay plate. Compounds were stored in dry, ambient temperatures at 10 mM. A 10-point, 1:3 dilution series was prepared from 10 mM stock concentrations in Echo-compatible LDV plates. 10 nL of each compound dilution series was dispensed into assays wells using an Echo 650 (Labcyte inc. USA). 10 nL of 10 mM Lenalidomide was transferred into the active-control wells for the assay and 10 nL of DMSO was transferred into the neutral-control wells. The assay was then allowed to incubate for 30 min at ambient temperature after transferring compound. Plate measurements were taken on a Pherastar FSX (BMG Labtech, Germany) using the HTRF Red filter (Ex. 337 nm, em1:620 nm, em2:665 nm) (Flashes: 50, Integration time: 60-400 us, Z-height: 10 mm, Ratio-multipler: 10,000). The HTRF signal was then subsequently normalized to the neutral and active controls. Analysis and IC50 values were derived using KNIME analytics (KNIME Zurich) transformation and fitting within Collaborative Drug Discovery (Collaborative Drug Discovery USA). Ki was derived from the geometric mean of the IC50 values using the Cheng-Prustoff transformation.

CRBN-DDB1, sequence (Q96SW2 whole entry): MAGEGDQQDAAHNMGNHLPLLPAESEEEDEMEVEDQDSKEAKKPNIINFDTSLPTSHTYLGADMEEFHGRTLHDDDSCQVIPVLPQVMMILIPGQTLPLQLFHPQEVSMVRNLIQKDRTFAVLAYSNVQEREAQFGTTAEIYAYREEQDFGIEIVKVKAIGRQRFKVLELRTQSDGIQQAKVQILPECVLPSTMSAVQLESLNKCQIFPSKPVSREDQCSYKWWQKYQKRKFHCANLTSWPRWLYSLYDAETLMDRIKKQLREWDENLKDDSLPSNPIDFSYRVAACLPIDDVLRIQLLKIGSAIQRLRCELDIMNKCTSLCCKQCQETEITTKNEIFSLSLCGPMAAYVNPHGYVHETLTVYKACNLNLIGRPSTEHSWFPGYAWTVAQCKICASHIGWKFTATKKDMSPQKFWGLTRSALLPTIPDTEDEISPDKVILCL
CRBN-DDB1, sequence (Q16531 whole entry partner): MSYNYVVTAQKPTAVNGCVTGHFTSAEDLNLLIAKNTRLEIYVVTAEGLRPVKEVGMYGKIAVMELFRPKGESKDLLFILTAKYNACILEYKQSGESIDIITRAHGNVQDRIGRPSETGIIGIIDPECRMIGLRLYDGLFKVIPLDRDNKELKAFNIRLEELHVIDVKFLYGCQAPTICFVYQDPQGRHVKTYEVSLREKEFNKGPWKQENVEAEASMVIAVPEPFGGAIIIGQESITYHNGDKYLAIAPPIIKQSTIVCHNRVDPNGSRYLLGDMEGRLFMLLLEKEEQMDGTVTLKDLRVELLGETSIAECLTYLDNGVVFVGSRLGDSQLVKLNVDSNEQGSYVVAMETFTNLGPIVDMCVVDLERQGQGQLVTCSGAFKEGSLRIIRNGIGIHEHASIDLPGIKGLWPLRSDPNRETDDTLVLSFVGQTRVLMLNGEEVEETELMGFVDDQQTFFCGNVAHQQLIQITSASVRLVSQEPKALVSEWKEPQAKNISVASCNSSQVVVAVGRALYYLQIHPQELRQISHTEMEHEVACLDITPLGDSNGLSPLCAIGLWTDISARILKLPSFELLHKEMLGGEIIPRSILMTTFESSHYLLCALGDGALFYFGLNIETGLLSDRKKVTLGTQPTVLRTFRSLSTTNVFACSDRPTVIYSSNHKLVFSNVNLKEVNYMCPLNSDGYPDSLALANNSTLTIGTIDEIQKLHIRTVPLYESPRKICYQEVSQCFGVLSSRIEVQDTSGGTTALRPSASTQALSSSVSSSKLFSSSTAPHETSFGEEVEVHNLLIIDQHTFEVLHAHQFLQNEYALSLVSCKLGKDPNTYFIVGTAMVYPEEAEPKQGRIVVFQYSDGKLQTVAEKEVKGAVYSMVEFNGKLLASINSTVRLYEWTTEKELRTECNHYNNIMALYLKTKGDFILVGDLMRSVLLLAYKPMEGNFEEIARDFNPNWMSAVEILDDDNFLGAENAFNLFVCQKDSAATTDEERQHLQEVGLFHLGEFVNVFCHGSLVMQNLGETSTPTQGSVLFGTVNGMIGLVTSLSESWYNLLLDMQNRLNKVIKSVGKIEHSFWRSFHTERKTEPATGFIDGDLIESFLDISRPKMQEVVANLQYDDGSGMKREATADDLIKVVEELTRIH

SMILES	Dmax [1]	Ki [2]
O=C1CCC(N2Cc3ccc(CNC(=O)OCc4ccc(Cl)cc4)cc3C2=O)C(=O)N1 (centres unmarked) [Compound 24, (4-chlorophenyl)methyl N-{[2-(2,6-dioxopiperidin-3-yl)-3-oxo-2,3-dihydro-1H-isoindol-5-yl]methyl}carbamate]	≤ 10%	≤ 100 nM
COc1ccc(COC(=O)NCc2ccc3c(c2)C(=O)N(C2CCC(=O)NC2=O)C3)cc1 (centres unmarked) [Compound 25, (4-methoxyphenyl)methyl N-{[2-(2,6-dioxopiperidin-3-yl)-3-oxo-2,3-dihydro-1H-isoindol-5-yl]methyl}carbamate]	10 to 50%	≤ 100 nM
O=C1CCC(N2Cc3ccc(CNC(=O)OCc4ccc([N+](=O)[O-])cc4)cc3C2=O)C(=O)N1 (centres unmarked) [Compound 26, (4-nitrophenyl)methyl N-{[2-(2,6-dioxopiperidin-3-yl)-3-oxo-2,3-dihydro-1H-isoindol-5-yl]methyl}carbamate]	10 to 50%	100 to 1000 nM
COc1ccc2cc(COC(=O)NCc3ccc4c(c3)C(=O)N(C3CCC(=O)NC3=O)C4)ccc2c1 (centres unmarked) [Compound 28, (6-methoxynaphthalen-2-yl)methyl N-{[2-(2,6-dioxopiperidin-3-yl)-3-oxo-2,3-dihydro-1H-isoindol-5-yl]methyl}carbamate]	≤ 10%	100 to 1000 nM
Cc1ccc(COC(=O)NCc2ccc3c(c2)C(=O)N(C2CCC(=O)NC2=O)C3)cc1 (centres unmarked) [Compound 29, (4-methylphenyl)methyl N-{[2-(2,6-dioxopiperidin-3-yl)-3-oxo-2,3-dihydro-1H-isoindol-5-yl]methyl}carbamate]	≤ 10%	≤ 100 nM
Cc1ccc(COC(=O)NCc2ccc3c(c2)C(=O)N(C2CCC(=O)NC2=O)C3)c(C)c1 (centres unmarked) [Compound 30, (2,4-dimethylphenyl)methyl N-{[2-(2,6-dioxopiperidin-3-yl)-3-oxo-2,3-dihydro-1H-isoindol-5-yl]methyl}carbamate]	10 to 50%	100 to 1000 nM
O=C1CCC(N2Cc3ccc(CNC(=O)OCc4cccc(C(F)(F)F)c4)cc3C2=O)C(=O)N1 (centres unmarked) [Compound 31, [3-(trifluoromethyl)phenyl]methyl N-{[2-(2,6-dioxopiperidin-3-yl)-3-oxo-2,3-dihydro-1H-isoindol-5-yl]methyl}carbamate]	10 to 50%	≤ 100 nM
O=C1CCC(N2Cc3ccc(CNC(=O)OCc4cccc([N+](=O)[O-])c4)cc3C2=O)C(=O)N1 (centres unmarked) [Compound 32, (3-nitrophenyl)methyl N-{[2-(2,6-dioxopiperidin-3-yl)-3-oxo-2,3-dihydro-1H-isoindol-5-yl]methyl}carbamate]	≤ 10%	100 to 1000 nM
O=C1CCC(N2Cc3ccc(CNC(=O)OCc4ccc(OC(F)F)cc4)cc3C2=O)C(=O)N1 (centres unmarked) [Compound 33, [4-(difluoromethoxy)phenyl]methyl N-{[2-(2,6-dioxopiperidin-3-yl)-3-oxo-2,3-dihydro-1H-isoindol-5-yl]methyl}carbamate]	10 to 50%	≤ 100 nM
CCOc1c(C)cc(COC(=O)NCc2ccc3c(c2)C(=O)N(C2CCC(=O)NC2=O)C3)cc1C (centres unmarked) [Compound 34, (4-ethoxy-3,5-dimethylphenyl)methyl N-{[2-(2,6-dioxopiperidin-3-yl)-3-oxo-2,3-dihydro-1H-isoindol-5-yl]methyl}carbamate]	10 to 50%	≤ 100 nM
CSc1cccc(COC(=O)NCc2ccc3c(c2)C(=O)N(C2CCC(=O)NC2=O)C3)c1 (centres unmarked) [Compound 35, [3-(methylsulfanyl)phenyl]methyl N-{[2-(2,6-dioxopiperidin-3-yl)-3-oxo-2,3-dihydro-1H-isoindol-5-yl]methyl}carbamate]	10 to 50%	≤ 100 nM
CCC(C)(C)c1ccc(COC(=O)NCc2ccc3c(c2)C(=O)N(C2CCC(=O)NC2=O)C3)cc1 (centres unmarked) [Compound 36, [4-(2-methylbutan-2-yl)phenyl]methyl N-{[2-(2,6-dioxopiperidin-3-yl)-3-oxo-2,3-dihydro-1H-isoindol-5-yl]methyl}carbamate]	10 to 50%	100 to 1000 nM
O=C1CCC(N2Cc3ccc(CNC(=O)OCc4ccc(C5CCCC5)cc4)cc3C2=O)C(=O)N1 (centres unmarked) [Compound 37, (4-cyclopentylphenyl)methyl N-{[2-(2,6-dioxopiperidin-3-yl)-3-oxo-2,3-dihydro-1H-isoindol-5-yl]methyl}carbamate]	10 to 50%	≤ 100 nM
CC(C)Oc1cccc(COC(=O)NCc2ccc3c(c2)C(=O)N(C2CCC(=O)NC2=O)C3)c1 (centres unmarked) [Compound 38, [3-(propan-2-yloxy)phenyl]methyl N-{[2-(2,6-dioxopiperidin-3-yl)-3-oxo-2,3-dihydro-1H-isoindol-5-yl]methyl}carbamate]	10 to 50%	100 to 1000 nM
C#CCOc1ccc(COC(=O)NCc2ccc3c(c2)C(=O)N(C2CCC(=O)NC2=O)C3)cc1 (centres unmarked) [Compound 39, [4-(prop-2-yn-1-yloxy)phenyl]methyl N-{[2-(2,6-dioxopiperidin-3-yl)-3-oxo-2,3-dihydro-1H-isoindol-5-yl]methyl}carbamate]	10 to 50%	≤ 100 nM
O=C1CCC(N2Cc3ccc(CNC(=O)OCc4ccc(OCC5CC5)cc4)cc3C2=O)C(=O)N1 (centres unmarked) [Compound 40, [4-(cyclopropylmethoxy)phenyl]methyl N-{[2-(2,6-dioxopiperidin-3-yl)-3-oxo-2,3-dihydro-1H-isoindol-5-yl]methyl}carbamate]	10 to 50%	≤ 100 nM
CCOc1ccc(COC(=O)NCc2ccc3c(c2)C(=O)N(C2CCC(=O)NC2=O)C3)c(C)c1 (centres unmarked) [Compound 41, (4-ethoxy-2-methylphenyl)methyl N-{[2-(2,6-dioxopiperidin-3-yl)-3-oxo-2,3-dihydro-1H-isoindol-5-yl]methyl}carbamate]	10 to 50%	100 to 1000 nM
O=C1CCC(N2Cc3ccc(CNC(=O)OCc4ccc(CC(F)(F)F)cc4)cc3C2=O)C(=O)N1 (centres unmarked) [Compound 42, [4-(2,2,2-trifluoroethyl)phenyl]methyl N-{[2-(2,6-dioxopiperidin-3-yl)-3-oxo-2,3-dihydro-1H-isoindol-5-yl]methyl}carbamate]	10 to 50%	≤ 100 nM
CCCc1ccc(COC(=O)NCc2ccc3c(c2)C(=O)N(C2CCC(=O)NC2=O)C3)cc1 (centres unmarked) [Compound 43, (4-propylphenyl)methyl N-{[2-(2,6-dioxopiperidin-3-yl)-3-oxo-2,3-dihydro-1H-isoindol-5-yl]methyl}carbamate]	10 to 50%	≤ 100 nM
COc1cc(COC(=O)NCc2ccc3c(c2)C(=O)N(C2CCC(=O)NC2=O)C3)ccc1F (centres unmarked) [Compound 44, (4-fluoro-3-methoxyphenyl)methyl N-{[2-(2,6-dioxopiperidin-3-yl)-3-oxo-2,3-dihydro-1H-isoindol-5-yl]methyl}carbamate]	10 to 50%	≤ 100 nM
CC(C)(C)c1cccc(COC(=O)NCc2ccc3c(c2)C(=O)N(C2CCC(=O)NC2=O)C3)c1 (centres unmarked) [Compound 45, (3-tert-butylphenyl)methyl N-{[2-(2,6-dioxopiperidin-3-yl)-3-oxo-2,3-dihydro-1H-isoindol-5-yl]methyl}carbamate]	10 to 50%	≤ 100 nM
CC(C)COc1ccc(COC(=O)NCc2ccc3c(c2)C(=O)N(C2CCC(=O)NC2=O)C3)cc1 (centres unmarked) [Compound 46, [4-(2-methylpropoxy)phenyl]methyl N-{[2-(2,6-dioxopiperidin-3-yl)-3-oxo-2,3-dihydro-1H-isoindol-5-yl]methyl}carbamate]	10 to 50%	100 to 1000 nM
